Measured values reported in patent publication US20220169654A1, “New Organic Compounds” (Servier Pharmaceuticals LLC, priority 2020, published 2022).

What was measured:
MAT2A homodimer = molecular target: T1, MAT2A homodimer (Homo sapiens, UniProt P31153); assay: MAT2A inhibition (biochemical, liberated phosphate, PiColorLock Gold); conditions: recombinant MAT2A homodimer; IC50 bin with Max Inh.; read-out: Enzyme Inhibition Bin
T1 construct: inferred from Ni sepharose purification with imidazole elution; made in house; host or cells: Sf9 insect cells, baculovirus (Bac to Bac, pFASTBAC1)
T1 sequence (P31153 whole entry): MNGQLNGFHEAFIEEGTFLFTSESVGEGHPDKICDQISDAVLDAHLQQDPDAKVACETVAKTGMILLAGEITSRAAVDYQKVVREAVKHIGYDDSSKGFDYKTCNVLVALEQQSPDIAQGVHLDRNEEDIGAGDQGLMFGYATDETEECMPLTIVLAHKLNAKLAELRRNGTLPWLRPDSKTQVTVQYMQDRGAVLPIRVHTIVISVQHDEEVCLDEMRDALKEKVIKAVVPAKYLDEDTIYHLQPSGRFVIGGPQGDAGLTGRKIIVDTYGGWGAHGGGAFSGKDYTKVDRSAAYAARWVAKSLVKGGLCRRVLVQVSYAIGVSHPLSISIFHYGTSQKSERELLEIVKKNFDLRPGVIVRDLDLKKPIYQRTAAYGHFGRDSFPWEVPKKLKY
In short: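 Baculovirus/Sf9-expressed, Ni-purified MAT2A (4 μg/mL) preincubated with compound 60 min at 25 °C in Tris pH 8.0/KCl/MgCl2 buffer. Reaction started with 500 μM ATP and 400 μM L-methionine (substrate-mix concentrations), run 60 min at 25 °C. Phosphate measured colorimetrically against a phosphate standard curve to give IC50.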

[1] = test system: SAM in HCT116 human colon carcinoma cell line with MTAP gene deleted (MTAP −/−); assay: Cellular assay of target engagement (SAM), LC-MS/MS, 72 hrs; format: cell-based; conditions: HCT-116, IC50 bin with Max Inh., read-out: Cell 72 h SAM Inhibition (MTAP −/−)
In short: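 MTAP-deleted HCT116 cells plated 24 h, then given 10-point 3-fold dilutions for 72 hrs at 37° C. Intracellular SAM extracted in cold 80% methanol with 1M acetic acid and d3-SAM standard, quantified by LC-MS/MS (MRM m/z 399.2→250.1); IC50 derived.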

HCT116 MTAP−/− = assay: Inhibition of cellular proliferation, 4 days, Cell Titer Glo, HCT116 MTAP−/−; format: cell-based; conditions: Homo sapiens, HCT-116, 96 h, IC50 bin with Max Inh., read-out: 4 Day Relative Growth Inhibition (MTAP −/−)
In short: (§1)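 Isogenic HCT116 pair differing only in MTAP status, plated 24 h before treatment with 10-point 3-fold dilutions; 4 days at 37° C./5% CO2. Cell Titer Glo luminescence, blank-subtracted and normalised to 0.2% DMSO control, gives percentage proliferation vs log molar concentration for IC50.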

HCT116 MTAP+/+ = assay: Inhibition of cellular proliferation, 4 days, Cell Titer Glo, HCT116 MTAP+/+; format: cell-based; conditions: Homo sapiens, HCT-116, 96 h, IC50 bin with Max Inh., read-out: 4 Day Relative Growth Inhibition (MTAP +/+)
In short: as §1

IC50 (MAT2A homodimer)	IC50 [1]	IC50 (HCT116 MTAP−/−)	IC50 (HCT116 MTAP+/+)	Structure (SMILES)
< 100 nM	100 to 1000 nM	< 100 nM	> 1000 nM	Cn1cc2cc(-n3nc4c(C#N)cn(CC5CC5)c4c(-c4ccc([C@H]5CC5(F)F)nc4)c3=O)ccc2n1 [Example 253, (R)-5-(cyclopropylmethyl)-4-(6-(2,2-difluorocyclopropyl)pyridin-3-yl)-2-(2-methyl-2H-indazol-5-yl)-3-oxo-3,5-dihydro-2H-pyrrolo[3,2-c]pyridazine-7-carbonitrile]
< 100 nM	100 to 1000 nM	100 to 1000 nM	100 to 1000 nM	Cn1cc2cc(-n3nc4c(C#N)cn(CC5CC5)c4c(-c4ccc(C5(C)CC5)nc4)c3=O)ccc2n1 [Example 254, 5-(cyclopropylmethyl)-2-(2-methyl-2H-indazol-5-yl)-4-[6-(1-methylcyclopropyl)pyridin-3-yl]-3-oxo-2H,3H,5H-pyrrolo[3,2-c]pyridazine-7-carbonitrile]
< 100 nM	100 to 1000 nM	100 to 1000 nM	> 1000 nM	Cn1cc2cc(-n3nc4c(C#N)cn(CC5CC5)c4c(-c4ccc(C5(O)CC5)nc4)c3=O)ccc2n1 [Example 256, 5-(cyclopropylmethyl)-4-(6-(1-hydroxycyclopropyl)pyridin-3-yl)-2-(2-methyl-2H-indazol-5-yl)-3-oxo-3,5-dihydro-2H-pyrrolo[3,2-c]pyridazine-7-carbonitrile]
< 100 nM	< 100 nM	< 100 nM	> 1000 nM	Cn1cc2cc(-n3nc4c(CC#N)cn(CC5CC5)c4c(-c4ccc(C5CC5)nc4)c3=O)ccc2n1 [Example 259, 2-(5-(cyclopropylmethyl)-4-(6-cyclopropylpyridin-3-yl)-2-(2-methyl-2H-indazol-5-yl)-3-oxo-3,5-dihydro-2H-pyrrolo[3,2-c]pyridazin-7-yl)acetonitrile]
< 100 nM	< 100 nM	< 100 nM	> 1000 nM	Cn1cc2cc(-n3nc4c(C#N)cn(C[C@@H]5CC5(F)F)c4c(-c4ccc(C5CC5)nc4)c3=O)ccc2n1 [Example 268, (S)-4-(6-cyclopropylpyridin-3-yl)-5-((2,2-difluorocyclopropyl)methyl)-2-(2-methyl-2H-indazol-5-yl)-3-oxo-3,5-dihydro-2H-pyrrolo[3,2-c]pyridazine-7-carbonitrile]
< 100 nM	< 100 nM	> 1000 nM	> 1000 nM	Cn1cc2cc(-n3nc4c(C#N)cn(C[C@H]5CC5(F)F)c4c(-c4ccc(C5CC5)nc4)c3=O)ccc2n1 [Example 269, (R)-4-(6-cyclopropylpyridin-3-yl)-5-((2,2-difluorocyclopropyl)methyl)-2-(2-methyl-2H-indazol-5-yl)-3-oxo-3,5-dihydro-2H-pyrrolo[3,2-c]pyridazine-7-carbonitrile]
< 100 nM	< 100 nM	< 100 nM	100 to 1000 nM	[2H]C([2H])([2H])n1cc2cc(-n3nc4c(C#N)cn(CC5CC5)c4c(-c4ccc(C5CC5)nc4)c3=O)ccc2n1 [Example 270, 5-(cyclopropylmethyl)-4-(6-cyclopropylpyridin-3-yl)-2-(2-(methyl-d3)-2H-indazol-5-yl)-3-oxo-3,5-dihydro-2H-pyrrolo[3,2-c]pyridazine-7-carbonitrile]

More lines, now with the values behind:

Structure (SMILES)	IC50 (MAT2A homodimer)	IC50 [1]	IC50 (HCT116 MTAP−/−)	IC50 (HCT116 MTAP+/+)
Cc1ccc(-c2c(=O)n(-c3ccc4nn(C)cc4c3)nc3c(CO)cn(CC4CC4)c23)cn1 [Example 255, 5-(cyclopropylmethyl)-7-(hydroxymethyl)-2-(2-methyl-2H-indazol-5-yl)-4-(6-methylpyridin-3-yl)-2,5-dihydro-3H-pyrrolo[3,2-c]pyridazin-3-one]	< 100 nM	< 100 nM	< 100 nM	100 to 1000 nM
C=C(CF)c1ccc(-c2c(=O)n(-c3ccc4nn(C)cc4c3)nc3c(C#N)cn(CC4CC4)c23)cn1 [Example 257, 5-(cyclopropylmethyl)-4-(6-(3-fluoroprop-1-en-2-yl)pyridin-3-yl)-2-(2-methyl-2H-indazol-5-yl)-3-oxo-3,5-dihydro-2H-pyrrolo[3,2-c]pyridazine-7-carbonitrile]	< 100 nM	100 to 1000 nM	100 to 1000 nM	> 1000 nM
Cc1ccc(-c2c(=O)n(-c3ccc4nn(C)cc4c3)nc3c(C(F)(F)F)cn(CC4CC4)c23)cn1 [Example 258, 5-(cyclopropylmethyl)-2-(2-methyl-2H-indazol-5-yl)-4-(6-methylpyridin-3-yl)-7-(trifluoromethyl)-2,5-dihydro-3H-pyrrolo[3,2-c]pyridazin-3-one]	< 100 nM	< 100 nM	< 100 nM	100 to 1000 nM
Cn1cc2cc(-n3nc4c(c(-c5ccc(C6CC6)nc5)c3=O)N(CC3CC3)CC4(C)C)ccc2n1 [Example 260, 5-(cyclopropylmethyl)-4-(6-cyclopropylpyridin-3-yl)-7,7-dimethyl-2-(2-methyl-2H-indazol-5-yl)-2,5,6,7-tetrahydro-3H-pyrrolo[3,2-c]pyridazin-3-one]	1000 to 10000 nM	> 1000 nM	> 1000 nM	> 1000 nM
Cc1cc2nn(-c3ccc4nn(C)cc4c3)c(=O)c(-c3ccc(C4CC4)nc3)c2n1CC1CC1 [Example 263, 5-(cyclopropylmethyl)-4-(6-cyclopropylpyridin-3-yl)-6-methyl-2-(2-methyl-2H-indazol-5-yl)-2,5-dihydro-3H-pyrrolo[3,2-c]pyridazin-3-one]	< 1000 nM	< 100 nM	> 1000 nM	> 1000 nM
Cc1c(C#N)c2nn(-c3ccc4nn(C)cc4c3)c(=O)c(-c3ccc(OC(F)F)cc3)c2n1CC1CC1 [Example 264, 5-(cyclopropylmethyl)-4-(4-(difluoromethoxy)phenyl)-6-methyl-2-(2-methyl-2H-indazol-5-yl)-3-oxo-3,5-dihydro-2H-pyrrolo[3,2-c]pyridazine-7-carbonitrile]	< 100 nM	< 100 nM	< 100 nM	> 1000 nM
CNCc1cn(CC2CC2)c2c(-c3ccc(C4CC4)nc3)c(=O)n(-c3ccc4nn(C)cc4c3)nc12 [Example 267, 5-(cyclopropylmethyl)-4-(6-cyclopropylpyridin-3-yl)-2-(2-methyl-2H-indazol-5-yl)-7-((methylamino)methyl)-2,5-dihydro-3H-pyrrolo[3,2-c]pyridazin-3-one]	< 100 nM	100 to 1000 nM	100 to 1000 nM	> 1000 nM
Cn1cc2cc(-n3nc4[nH]cc(CC5CC5)c4c(-c4ccc(OC(F)F)cc4)c3=O)ccc2n1 [Example 271, 5-(cyclopropylmethyl)-4-(4-(difluoromethoxy)phenyl)-2-(2-methyl-2H-indazol-5-yl)-2,7-dihydro-3H-pyrrolo[2,3-c]pyridazin-3-one]	< 100 nM	< 100 nM	< 100 nM	100 to 1000 nM
